pKd, pKi: −log10 of the molar value. Entries after “also recorded” stand apart in the source; their conditions may differ. Where a name gives a salt, the structure may show the parent alone. Read-outs that look alike come from different tables or passages of the source. Bounds are passed on as bounds.

Usually pKd stands for −log10 of the Kd, conventionally taken in molar units. What is called pKi is the Ki on a negative log10 scale, so that one unit is a factor of ten.

The test system of experiment [1] is formalin-induced nociceptive behavior. Conditions: pretreatment, literature, cited from earlier work.
The test system of experiment [2] is NMDA-induced nociceptive behaviors. Conditions: Okano et al.; cited from earlier work.
Experiment [3] has as its system pain syndromes unresponsive to morphine. Conditions: anecdotal case reports; cited from earlier work.
Experiment [4] has as its system NMDA-induced depolarization. Conditions: in vitro (Ebert), cited from earlier work.
In experiment [5] the test system is mu-type of the opioid receptor. Conditions: Neil; cited from earlier work.
Experiment [6] concerns NMDA receptor in rat cortical membranes. Conditions: rat cortical membranes (Ebert); cited from earlier work.
For experiment [7], the target named is NMDA receptor, rat forebrain. Conditions: used to calculate Ki; no footnote a; read-out: Kd (CGS19755), forebrain; cited from earlier work.
In another experiment the test system is spinal cord neurons. Conditions: Dickenson et al.; cited from earlier work.
A further experiment concerns morphine tolerance. Conditions: Elliott et al.; cited from earlier work.
For experiment [8], the system named is rat. It counts as in vivo.
A further experiment has as its system NMDA receptors. Conditions: cited from earlier work.
Another experiment has as its system NMDA-induced behaviors. As to the kind of experiment: Intrathecal NMDA-induced nociceptive behaviors.
For experiment [9], the system named is rat. As to the kind of experiment: Formalin test (formalin-induced flinching), intrathecal drug.
Experiment [10] has as its system rat. As to the kind of experiment: Tail-flick test, intrathecal, cumulative dose-response and time course. Conditions: for blockade of antinociceptive effect of l-methadone: naloxone 30 μg/rat + l-methadone 80 μg/rat IT; for antinociceptive (analgesic) effect in tail-flick test: up to cumulative 460 μg/rat. (In general: Hot-plate and tail-flick tests time the reaction to a heat stimulus.)

The test system of experiment [11] is NMDA receptor (noncompetitive MK-801 site), rat forebrain. It counts as binding.
Experiment [12] concerns rat. Conditions: rats (Ingoglia); cited from earlier work.
Another experiment relates to mice. Conditions: mice (Smits); cited from earlier work.
In the next experiment the test system is humans. Conditions: humans (Olsen); cited from earlier work.

Regarding 3-amino-5-phosphonovaleric acid [APV], the “effect on nociceptive responses in formalin test” value (“effect on nociceptive responses” below) in experiment [1] is “reduces”. Also, the “antagonism of NMDA-induced nociceptive behaviors” value in [2] is “antagonized”.

For `CCC(=O)C(CC(C)N(C)C)(c1ccccc1)c1ccccc1` (racemic) [dl-Methadone], the “management of pain syndromes unresponsive to morphine” value in experiment [3] is “successful management”. The “effect on NMDA-induced depolarization” value in experiment [4] is given as “reduced NMDA-induced depolarizations”; in [4] (listed as racemic methadone), “reduces NMDA-induced depolarization”. The “binding to mu-type of the opioid receptor” value in [5] is listed as “binds preferentially”. In experiment [6], the “affinity for the NMDA receptor” value is recorded as “low μm affinity”.

In the case of `O=C(O)[C@@H]1C[C@H](CP(=O)(O)O)CCN1` [CGS19755], the pKd in experiment [7] was 7.62.

In the case of `COc1ccc2c(c1)[C@]13CCCC[C@@H]1[C@H](C2)N(C)CC3` [Dextromethorphan], the “effect on wind up of spinal cord neurons” value in the experiment with spinal cord neurons was “suppresses”. Besides, the “effect on nociceptive responses” value in experiment [1] was “attenuates nociceptive responses”; in [1] (listed as dextromethorphan), “reduces”. For the same compound, in the experiment with morphine tolerance, the “effect on development of tolerance to morphine” value (shortened to “effect on development”) is “attenuates and reverses”.

As to `CNC1(c2ccccc2Cl)CCCCC1=O` (centres unmarked) [Ketamine], the “effect on nociceptive responses” value in experiment [1] is “reduces”.

In the case of `O=C(O)[C@@H]1C[C@H]2C[C@@H](CP(=O)(O)O)CC[C@H]2CN1` [LY274614], the “effect on development” value in the experiment with morphine tolerance was “attenuates and reverses”.

On to `C[C@]12N[C@H](Cc3ccccc31)c1ccccc12` [MK-801, (+)-5 methyl-10,11-dihydro-5H-dibenzo[a,d]cyclo-hepten-5, 10-imine hydrogen maleate], for which the “effect on nociceptive responses” value in experiment [1] was “reduces”. Also, in the experiment on morphine tolerance, the “effect on development” value is “attenuates and reverses”.

On to `CN1CC[C@]23c4c5ccc(O)c4O[C@H]2[C@@H](O)C=C[C@H]3[C@H]1C5` [Morphine], for which the “Morphine ED50 (95% CI)” value was 37.6 (28.5-56.7) ug/rat in the experiment with rat [8] (SALINE + MORPHINE, Day 2 (so in the source)) and 1.0 (0.5-1.8) ug/rat in the experiment with rat [8] (SALINE, Day 1). The “binding to NMDA receptors” value with NMDA receptors was “do not bind to NMDA receptors”.

On to `CN[C@H](CC(=O)O)C(=O)O` [NMDA, N-methyl-D-aspartate], for which, in the experiment with NMDA-induced behaviors (intrathecal), the “ED99 dose of NMDA” value worked out at 2.4 nmol/rat. For the same compound, the “NMDA ED50 (95% CI)” value with NMDA-induced behaviors (pretreatment with saline or d-methadone 250 μg/rat) is reported as 1.3 (1.0-1.6) nmol/rat IT.

For `C=CCN1CC[C@]23c4c5ccc(O)c4O[C@H]2C(=O)CC[C@@]3(O)[C@H]1C5` [Naloxone], the “reversal by naloxone of antinociceptive effect of d-methadone” value with rat [9] (naloxone 30 μg/rat + d-methadone 250 μg/rat IT) is “did not affect; also recorded: not reversed; also recorded: not blocked”. Moreover, the “effect of naloxone alone on base-line tail-flick latencies / antinociception” value in the experiment with rat [10] (30 μg/rat spinal) is listed as “did not affect base-line tail-flick latencies or produce an antinociceptive (analgesic) response”. Also, the figures for the “blockade of antinociceptive effect of l-methadone” value in the experiment with rat [10] and with rat [10] (listed as naloxone) were “completely blocked” and “completely blocked; also recorded: blocks; also recorded: effectively antagonized”, respectively. For the same compound, the “duration of blockade of l-methadone effect” value in the experiment with rat [10] (naloxone 30 μg/rat vs l-methadone 80 μg/rat) is “at least 75 minutes”.

For `O=C1CC[C@@]2(O)[C@H]3Cc4ccc(O)c5c4[C@@]2(CCN3CC2CC2)[C@H]1O5` [Naltrexone], the “displacement of [3H]MK-801 binding” value in experiment [11] was “did not displace”. For the same compound, in [11] (read-out: [3H]MK-801 Ki, forebrain), the pKi was less than 4.00.

Turning to `CCC(=O)C(C[C@H](C)N(C)C)(c1ccccc1)c1ccccc1` [d-Methadone, (S)-(+)-methadone], in the experiment with rat [12], the “activity following intraventricular administration” value is “inactive”. In the experiment with NMDA-induced behaviors (250 μg (809 nmol)/rat, NMDA 2.4 nmol/rat), the “blockade of an ED99 dose of NMDA” value is recorded as “completely blocked”. Besides, the “increase of NMDA ED50” value in the experiment with NMDA-induced behaviors (d-methadone 250 μg/rat) is “more than 3 fold”. Moreover, in the experiment with mice, the opioid-like locomotor activity result was “does not produce opioid-like locomotor activity”. In addition, in the experiment with rat [8] (rat, in vivo), the “development of morphine tolerance” value is on record as “prevented the development of morphine tolerance”, the “effect of d-methadone alone on morphine ED50” value was “did not alter” and the “morphine ED50 in d-methadone+morphine group” value is “not significantly increased”. The “effect on phase 2 flinching vs saline” value with rat [9] (250 μg/rat IT, with or without naloxone 30 μg/rat) is “significantly reduce”. Further, in the experiment on rat [9] (320 μg/rat spinal), the “decrease in phase 2 flinching” value is reported as 68%. The “effect on number of flinches, phase 1” value in the experiment on rat [9] (IT 32, 160, 320 μg/rat, 0-10 minutes) is “did not affect; also recorded: not during phase 1”. In addition, the “effect on flinching behavior, phase 2” value with rat [9] (IT 32, 160, 320 μg/rat, 10-60 minutes) is “dose-dependently reduces”. In addition, the “analgesic potency vs l-methadone (less potent)” value in the experiment on humans is 50 fold. Moreover, the “antinociceptive (analgesic) effect in tail-flick test” value (“antinociceptive (analgesic) effect” for short) with rat [10] (intrathecal) is “no antinociceptive effects”. The “antinociceptive (analgesic) effect” value in the experiment with rat [10] (intrathecal, listed as d-methadone) is recorded as “None of the rats that received d-methadone became an analgesic responder; also recorded: no analgesia”.

With `CCC(=O)C(C[C@@H](C)N(C)C)(c1ccccc1)c1ccccc1` [l-Methadone, (R)-(-)-methadone], in the experiment with rat [10] (40 μg/rat spinal, time course study), the “time of peak analgesic effect” value is 15 min. The “ED50, tail-flick test” value in the experiment with rat [10] (IT, cumulative dose-response) came out at 15.6 ug/rat. The “antinociceptive (analgesic) effect” value in the experiment on rat [10] (intrathecal) is “dose-dependent antinociception”. In addition, the “ED50, tail-flick antinociception” value in the experiment with rat [10] (intrathecal, 95% CI 7.0-29.8) turned out to be 15.6 μg/rat. Also, in the experiment on rat [10] (spinal, tail-flick test), the “approximately ED90 antinociceptive dose” value is approximately 80 μg/rat.

Source of the values: US6008258A (priority 1998, dated 1999).
